Test system: S. mansoni schistosomulae
Test: Phenotypic primary screen assay on schistosomulae (phenotype; viability by methylene blue dye exclusion)
Type: cell-based, Schistosoma mansoni
Conditions: three-day-old schistosomulae, 10 μM, 24 h; estimated 5 days post compound exposure
Experimental: Puerto Rican strain Biomphalaria glabrata snails infected with S. mansoni were kindly provided by Dr. Fred Lewis (Biomedical Research Institute and BEI Resources, MD, USA). Schistosomulae were obtained by exposing six to eight weeks-old snails to continuous light for 2 h at 32 °C. […] At this point, animals with internal dark granulations and with no observable body contraction/relaxation cycles were considered dead.
Schistosomulae were monitored under a stereo microscope (SMZ1270, Nikon). Phenotypic observations were made by analyzing schistosomulae, 24 h after drug addition to assess any immediate effect and five days post-compound exposure to observe long-term impacts on both the movement and overall body shape in comparison to control animals exposed to DMSO only.

| SMILES | Phenotype |
| --- | --- |
| C=C1C(=O)O[C@@H]2/C=C(\C)CC/C=C(\C)CC[C@@H]12 [Costunolide] | big, granulated |
| CN1CCN(C2=Nc3cc(Cl)ccc3Nc3ccccc32)CC1 [Clozapine] | elongated |
| CCOC(=O)C1=C(C)NC(C)=C(C(=O)OCC)C1c1ccccc1/C=C/C(=O)OC(C)(C)C [Lacidipine] | granulated |
| CCCCCCCCc1ccc(CCC(N)(CO)CO)cc1 [Fingolimod] | dark, granulated |

Test system: S. mansoni schistosomulae
Test: Motility assay on schistosomulae (pixel displacement, relative to DMSO control)
Type: cell-based, Schistosoma mansoni
Conditions: Schistosoma mansoni, 120 h; schistosomulae, secondary screen, 24h exposure, read at D5, 1 µM; read-out: Fractional motility
Experimental: Puerto Rican strain Biomphalaria glabrata snails infected with S. mansoni were kindly provided by Dr. Fred Lewis (Biomedical Research Institute and BEI Resources, MD, USA). Schistosomulae were obtained by exposing six to eight weeks-old snails to continuous light for 2 h at 32 °C. The resulting suspension of cercaria was then mechanically transformed as described ([Lewis, 2001]) and cultured in Opti-MEM/antibiotics (Thermo Fisher Scientific, Waltham, MA) containing 100 μg/mL streptomycin and 100 units/ml penicillin supplemented with 5% fetal bovine serum (FBS; Thermo Fisher). Parasite cultures were incubated at 37 °C with 5% CO2 for at least 10 days with no apparent loss of viability. At this point, animals with internal dark granulations and with no observable body contraction/relaxation cycles were considered dead.
(§1) Schistosomulae (200/well) and adult parasites (unpaired worms) were maintained in 300 μL OPTI-MEM with 5% dialyzed FBS (without antibiotics) and exposed to compounds at 1 and 10 μM for 24 h. A kinetic assay consisting of 1, 3, 6 and 12 h incubation times was performed on selected hits by motility monitoring using a stereo microscope (SMZ1270, Nikon) for adults and an inverted microscope for schistosomulae (eclipse TE2000-U, Nikon) connected to a monochrome camera (DS-Qi2, Nikon) for image acquisition. Images were recorded at a rate of 10 frames/s for a period of 1 min and videos were analyzed using ImageJ software (version 1.41, NIH, USA). Parasite movement quantification and data analysis protocols were applied using the pixel displacement method ([Patocka et al., 2014]; [Rashid et al., 2015]) and compared to control parasites treated with DMSO. Parasites were then washed several times in Opti-MEM, 5% FBS and incubated up to an additional three days (schistosomulae) or five days (adult worms) at 37 °C, 5% CO2 and motility was recorded as described above.

| SMILES | activity at 1 µM [%] |
| --- | --- |
| C=C1C(=O)O[C@@H]2/C=C(\C)CC/C=C(\C)CC[C@@H]12 [Costunolide] | 16 |
| CN1CCN(C2=Nc3cc(Cl)ccc3Nc3ccccc32)CC1 [Clozapine] | 121 |
| CCOC(=O)C1=C(C)NC(C)=C(C(=O)OCC)C1c1ccccc1/C=C/C(=O)OC(C)(C)C [Lacidipine] | -11 |
| CCCCCCCCc1ccc(CCC(N)(CO)CO)cc1 [Fingolimod] | 151 |

Same assay, conditions: Schistosoma mansoni; schistosomulae, secondary screen, 24h exposure, read at D1, 1 µM; read-out: Fractional motility

| SMILES | activity at 1 µM [%] |
| --- | --- |
| C=C1C(=O)O[C@@H]2/C=C(\C)CC/C=C(\C)CC[C@@H]12 [Costunolide] | -57 |
| CN1CCN(C2=Nc3cc(Cl)ccc3Nc3ccccc32)CC1 [Clozapine] | 625 |
| CCOC(=O)C1=C(C)NC(C)=C(C(=O)OCC)C1c1ccccc1/C=C/C(=O)OC(C)(C)C [Lacidipine] | 99 |
| CCCCCCCCc1ccc(CCC(N)(CO)CO)cc1 [Fingolimod] | 180 |

Same assay, conditions: schistosomulae, 1h exposure, read at D1, 10 µM

| SMILES | Fractional motility |
| --- | --- |
| C=C1C(=O)O[C@@H]2/C=C(\C)CC/C=C(\C)CC[C@@H]12 [Costunolide] | -0.77 |

Same assay, conditions: schistosomulae, 1h exposure, read at D5, 10 µM

| SMILES | Fractional motility |
| --- | --- |
| C=C1C(=O)O[C@@H]2/C=C(\C)CC/C=C(\C)CC[C@@H]12 [Costunolide] | -0.29 |

Same assay, conditions: schistosomulae, 3h exposure, read at D1, 10 µM

| SMILES | Fractional motility |
| --- | --- |
| C=C1C(=O)O[C@@H]2/C=C(\C)CC/C=C(\C)CC[C@@H]12 [Costunolide] | 0.34 |

Same assay, conditions: schistosomulae, 3h exposure, read at D5, 10 µM

| SMILES | Fractional motility |
| --- | --- |
| C=C1C(=O)O[C@@H]2/C=C(\C)CC/C=C(\C)CC[C@@H]12 [Costunolide] | 1.03 |

Same assay, conditions: schistosomulae, 6h exposure, read at D1, 10 µM

| SMILES | Fractional motility |
| --- | --- |
| C=C1C(=O)O[C@@H]2/C=C(\C)CC/C=C(\C)CC[C@@H]12 [Costunolide] | 2.25 |

Same assay, conditions: schistosomulae, 6h exposure, read at D5, 10 µM

| SMILES | Fractional motility |
| --- | --- |
| C=C1C(=O)O[C@@H]2/C=C(\C)CC/C=C(\C)CC[C@@H]12 [Costunolide] | -0.56 |

Same assay, conditions: schistosomulae, secondary screen, 24h exposure, read at D1, 10 µM

| SMILES | Fractional motility |
| --- | --- |
| C=C1C(=O)O[C@@H]2/C=C(\C)CC/C=C(\C)CC[C@@H]12 [Costunolide] | -0.92 |
| CN1CCN(C2=Nc3cc(Cl)ccc3Nc3ccccc32)CC1 [Clozapine] | 23.43 |
| CCOC(=O)C1=C(C)NC(C)=C(C(=O)OCC)C1c1ccccc1/C=C/C(=O)OC(C)(C)C [Lacidipine] | 3.79 |
| CCCCCCCCc1ccc(CCC(N)(CO)CO)cc1 [Fingolimod] | 2.04 |

Same assay, conditions: schistosomulae, secondary screen, 24h exposure, read at D5, 10 µM

| SMILES | Fractional motility |
| --- | --- |
| C=C1C(=O)O[C@@H]2/C=C(\C)CC/C=C(\C)CC[C@@H]12 [Costunolide] | -0.94 |
| CN1CCN(C2=Nc3cc(Cl)ccc3Nc3ccccc32)CC1 [Clozapine] | -0.13 |
| CCOC(=O)C1=C(C)NC(C)=C(C(=O)OCC)C1c1ccccc1/C=C/C(=O)OC(C)(C)C [Lacidipine] | 0.28 |
| CCCCCCCCc1ccc(CCC(N)(CO)CO)cc1 [Fingolimod] | -1.00 |

Same assay, conditions: three-day old schistosomulae, incubation 1 h, 3 h, 6 h

| SMILES | motility in extended assay with reduced incubation times, in words |
| --- | --- |
| C=C1C(=O)O[C@@H]2/C=C(\C)CC/C=C(\C)CC[C@@H]12 [Costunolide] | did not exhibit a significant change before the 24 hr incubation cut-off |

Test system: S. mansoni adult worms
Test: Motility assay on adult parasites (pixel displacement, relative to DMSO control)
Type: cell-based, Schistosoma mansoni
Conditions: secondary screen, 10 μM, D1, Female adult worms
Experimental: Adult parasites were collected from 40 day-old female CD1 mice (Charles River) previously inoculated by the tail infection method ([Lewis, 2001]). Six weeks post-infection, mice were sacrificed, and adult worms extracted after perfusion of in the hepatic portal vein and mesenteric venules ([Lewis, 2001]). Animal procedures were reviewed and approved by the Facility Animal Care Committee of McGill University (Protocol No. 3346) and were conducted in accordance with the guidelines of the Canadian Council on Animal Care.
as §1

| SMILES | Fractional motility |
| --- | --- |
| C=C1C(=O)O[C@@H]2/C=C(\C)CC/C=C(\C)CC[C@@H]12 [Costunolide] | -0.10 |
| CN1CCN(C2=Nc3cc(Cl)ccc3Nc3ccccc32)CC1 [Clozapine] | 2.39 |
| CCOC(=O)C1=C(C)NC(C)=C(C(=O)OCC)C1c1ccccc1/C=C/C(=O)OC(C)(C)C [Lacidipine] | -0.73 |
| CCCCCCCCc1ccc(CCC(N)(CO)CO)cc1 [Fingolimod] | -0.39 |

Same assay, conditions: secondary screen, 10 μM, D1, Male adult worms

| SMILES | Fractional motility |
| --- | --- |
| CN1CCN(C2=Nc3cc(Cl)ccc3Nc3ccccc32)CC1 [Clozapine] | 2.19 |
| CCOC(=O)C1=C(C)NC(C)=C(C(=O)OCC)C1c1ccccc1/C=C/C(=O)OC(C)(C)C [Lacidipine] | -0.50 |
| CCCCCCCCc1ccc(CCC(N)(CO)CO)cc1 [Fingolimod] | 0.65 |

Same assay, conditions: secondary screen, 10 μM, D5, Female adult worms

| SMILES | Fractional motility |
| --- | --- |
| C=C1C(=O)O[C@@H]2/C=C(\C)CC/C=C(\C)CC[C@@H]12 [Costunolide] | -0.83 |
| CN1CCN(C2=Nc3cc(Cl)ccc3Nc3ccccc32)CC1 [Clozapine] | -0.70 |
| CCOC(=O)C1=C(C)NC(C)=C(C(=O)OCC)C1c1ccccc1/C=C/C(=O)OC(C)(C)C [Lacidipine] | -0.82 |
| CCCCCCCCc1ccc(CCC(N)(CO)CO)cc1 [Fingolimod] | -0.09 |

Same assay, conditions: secondary screen, 10 μM, D5, Male adult worms

| SMILES | Fractional motility |
| --- | --- |
| CN1CCN(C2=Nc3cc(Cl)ccc3Nc3ccccc32)CC1 [Clozapine] | 0.45 |
| CCOC(=O)C1=C(C)NC(C)=C(C(=O)OCC)C1c1ccccc1/C=C/C(=O)OC(C)(C)C [Lacidipine] | -0.53 |
| CCCCCCCCc1ccc(CCC(N)(CO)CO)cc1 [Fingolimod] | -0.15 |

Test system: S. mansoni schistosomulae
Test: Phenotypic primary screen assay on schistosomulae (phenotype; viability by methylene blue dye exclusion)
Type: cell-based
Conditions: Schistosoma mansoni; three-day-old schistosomulae, 10 μM, 24 h; calculated 5 days post compound exposure; read-out: Viability (%)

| SMILES | viability at 10 µM [%] |
| --- | --- |
| C=C1C(=O)O[C@@H]2/C=C(\C)CC/C=C(\C)CC[C@@H]12 [Costunolide] | 1.5 |
| CN1CCN(C2=Nc3cc(Cl)ccc3Nc3ccccc32)CC1 [Clozapine] | 98 |
| CCOC(=O)C1=C(C)NC(C)=C(C(=O)OCC)C1c1ccccc1/C=C/C(=O)OC(C)(C)C [Lacidipine] | 99 |
| CCCCCCCCc1ccc(CCC(N)(CO)CO)cc1 [Fingolimod] | 0 |
